Results: patent publication US5183826A, “Antiviral agent” (Merck & Co., Inc., priority 1990, dated 1993)
pIC50: −log10 of the molar value.

Experiments:
HIV protease = biological target: T1, HIV protease (Human immunodeficiency virus type 1 group M subtype B, UniProt P12497); test: HIV protease inhibition: cleavage of radiolabelled synthetic peptide substrate (beta-naphthylalanine-proline bond); format: biochemical; details: for Disintegrations/Minute: Blank 236, Total (Control) 4497
T1 construct: ability of a HIV protease to cleave the peptide bond
Source text: The HIV protease inhibitor activity may be seen in an assay to test the presence of a compound which affects the ability of a HIV protease to cleave the peptide bond between β-naphthylalanine and proline. A suitable substrate is ^3 H β-casein. However, a synthetic peptide containing the β-naphthylalanine and proline link gives more consistent results and one especially preferred is a peptide which is radioactively labelled at one terminus and arginine substituted at the other terminus thereby allowing the basic end to be bound to a cation exchange resin and the cleaved labelled fragment to be found in the eluate.
In a representative assay, 25 μl of a dilute peptide substrate solution containing 0.5 μl of the substrate in a 100 mM sodium acetate buffer was added to an assay tube containing (a) 45 μl of 111 mM sodium acetate buffer, (b) 25 μl of a diluted protease solution containing 0.4% bovine serum albumin (BSA) and (c) 5 μl of a solution containing from 0.63 to 210 μM of Compound I, or to blank tubes containing 25 μl of 100 mM sodium acetate plus 0.4 percent BSA, 45 μl of 111 mM sodium acetate buffer and 5 μl of dimethyl sulfoxide (DMSO) (99 vols. DMSO plus 1 vol 100 mM tris(hydroxymethyl)aminomethane (TRIS·HCl), pH 7.5). In the tubes, the concentration of the protease solution is 2.0 nM. The assay tubes are then incubated for 37° C. for 60 minutes and the reaction then quenched with 100 μl of 5% H3 PO4.
150 microliters of the reaction mixture was placed on a cation exchange column (Dowex AG-50W-X8, Dow Chemical Company) and the column then washed with 1.85 milliliters of water and the effluents collected in scintillation vials. 7-10 milliliters of scintillation cocktails were added to each vial, the vials vortexed vigorously, then placed in the scintillation counter and counted using the tritium channel. The results were as follows:
The percent inhibition was obtained by the following calculation: [formula]

[1] = system: platelet activating factor; test: assay for platelet activating factor
proteases = test: specificity against other proteases (statement); format: biochemical; details: no inhibitory effect or some activity only against proteases whose locus of action is avoidable
[2] = solubility in organic solvents; details: methanol, ethanol, isopropanol, ethyl acetate, chloroform, dimethylformamide, benzene, diethyl ether, dimethyl sulfoxide
[3] = cytotoxic and other side effects (statement)

With `C=C1C(C)C2C(Cc3ccccc3)NC(=O)C23C(OC(C)=O)/C=C/C(C)CC(C)C/C=C/C3C1O` (stereo not shown) [Compound I] the “HIV protease inhibition (general statement in words)” value (HIV protease) was “very effective HIV protease inhibitor”, the pIC50 (HIV protease) was about 5.20 and the Disintegrations/Minute (HIV protease; Compound I 2.1 μM) was 3862 Disintegrations/Minute. For the same compound, the inhibition at 2.1 µM (HIV protease; Compound I 2.1 μM, protease 2.0 nM, 37° C., 60 minutes, read-out: Percent Inhibition) was 15%, the Disintegrations/Minute (HIV protease; Compound I 6.3 μM) was 2309 Disintegrations/Minute and the inhibition at 6.3 µM (HIV protease; Compound I 6.3 μM, protease 2.0 nM, 37° C., 60 minutes, read-out: Percent Inhibition) was 51%. The Disintegrations/Minute (HIV protease; Compound I 21 μM) was 1139 Disintegrations/Minute, the inhibition at 21 µM (stock) (HIV protease; Compound I 21 μM, protease 2.0 nM, 37° C., 60 minutes, read-out: Percent Inhibition) was 79% and the Disintegrations/Minute (HIV protease; Compound I 63 μM) was 550 Disintegrations/Minute. It also gave an inhibition at 63 µM (HIV protease; Compound I 63 μM, protease 2.0 nM, 37° C., 60 minutes, read-out: Percent Inhibition) of 93%, a Disintegrations/Minute (HIV protease; Compound I 210 μM) of 402 Disintegrations/Minute and an inhibition at 210 µM (HIV protease; Compound I 210 μM, protease 2.0 nM, 37° C., 60 minutes, read-out: Percent Inhibition) of 96%. For the same compound, the Disintegrations/Minute (HIV protease; Compound I .63 μM) was 5265 Disintegrations/Minute, the inhibition at 0.63 µM (stock) (HIV protease; Compound I .63 μM, protease 2.0 nM, 37° C., 60 minutes, read-out: Percent Inhibition) was -18% and the “inhibition of HIV protease (in words)” value (HIV protease; concentration of Compound I about 63 μm or greater) was “very high degree to substantially complete inhibition”. For the same compound, the “activity in an assay for platelet activating factor” value [1] was “some activity”, the specificity among proteases (proteases) was “highly specific having no inhibitory effect or showing some activity only against proteases whose locus of action is avoidable” and the “solubility in organic solvents” value [2] was “soluble in organic solvents”. The “undesirable cytotoxic and other side effects” value [3] was “substantially free of undesirable cytotoxic and other side effects”.
